Assay [1] has as its target T1, α-toxin (Staphylococcus aureus, UniProt P09616). The note with it: cited from earlier work.
The target in assay [2] is T1, α-toxin. The format is cell-based.
Another assay concerns S. aureus strain 8325-4. Nature of the assay: Experimental keratitis in rabbits, S. aureus strain 8325-4, topical treatment. The assay is classed as in vivo, Staphylococcus aureus. Particulars: rabbit eyes. The method, then: FIG. 4 is a set of graphs that show the effect of CD-cholesterol treatment of eyes infected with strain 8325-4. Rabbit corneas were injected with 10^2 CFU of S. aureus 8325-4. Eyes were randomized and treated with 1% CD-cholesterol, 1% CD, or PBS from 7 to 13 hours PI. At 7 hours PI, eyes were treated with a single topical drop every 15 minutes from 7 to 8 hours PI. At 8.5 hours PI, eyes were treated with a single topical drop every 30 minutes until 13 hours PI (a total of 15 drops). At 13 hours PI, the eyes were evaluated by SLE (A) and erosion diameters were measured using fluorescein strips (B) The pathologic changes were observed then averaged and statistical comparisons were performed using one-way ANOVA. The erosions were averaged and statistical comparisons using analysis of variance and Student's t-test were performed. Error bars are the standard error of the mean (SEM). P≦0.05, for either test, was considered significant. […] The eyes treated with 1% CD or with PBS had statistically similar SLE scores (P=0.4002). […] The eyes treated with 1% CD-cholesterol or 1% CD had erosion diameters similar to one another (P=0.4002).
(§1) Rabbits (n≧4 eyes per group) were infected as previously described, injecting approximately 100 colony forming units (CFU) of strain 8325-4 or strain 60171, a clinical isolate, in 10 μL of TSB into the stroma of the cornea. Accuracy of the inoculum size was verified by plating aliquots (100 μL) of serial dilutions in triplicate on TSA.
At 7 hours postinfection (PI), treatment began and consisted of a single topical drop of PBS, 1% CD, or 1% CD-cholesterol every 15 minutes from 7 to 8 hours PI. Then, beginning at 8.5 hours PI, a single drop was administered every 30 minutes until 13 hours PI; a total of 15 drops per eye. At 13 hours PI, corneal erosions were measured and all eyes underwent slit lamp examination (SLE) to quantify pathologic changes. […]
Corneas of rabbits infected with either S. aureus 8325-4 or 60171 were harvested at 14 hours PI and bacteria were quantified as described previously. […]

The subject of another assay is S. aureus strain 60171. Nature of the assay: Experimental keratitis in rabbits, S. aureus clinical isolate 60171, topical treatment. The assay is classed as in vivo, Staphylococcus aureus. Particulars: rabbit eyes. As to the method: FIG. 5 is a set of graphs that show the effect of CD-cholesterol treatment of eyes infected with strain 60171. Eyes were treated and evaluated as described for FIG. 3. Error bars are the SEM. […] In contrast, the CD-treated eyes had similar SLE scores compared to the PBS-treated eyes (P=0.7403). […] There was no statistical difference between the eyes treated with 1% CD and the eyes treated with PBS (P=0.2131).
as §1
At 7 hours postinfection (PI), treatment began and consisted of a single topical drop of PBS, 1% CD, or 1% CD-cholesterol every 15 minutes from 7 to 8 hours PI. Then, beginning at 8.5 hours PI, a single drop was administered every 30 minutes until 13 hours PI; a total of 15 drops per eye. At 13 hours PI, corneal erosions were measured and all eyes underwent slit lamp examination (SLE) to quantify pathologic changes.
SLE of pathologic changes of rabbit eyes was performed by two masked observers as described previously.
Corneas of rabbits infected with either S. aureus 8325-4 or 60171 were harvested at 14 hours PI and bacteria were quantified as described previously.
These finding raised the possibility that CD-cholesterol could treat corneas infected with S. aureus. Rabbit corneas were injected with either S. aureus strain 8325-4 or S. aureus clinical isolate 60171. Rabbit eyes were treated from 7 to 13 hours PI with PBS, 1% CD, or 1% CD-cholesterol. […]
Strain 60171, an ocular clinical isolate, was injected into the corneas of rabbits to determine the effectiveness of treatments with CD-cholesterol, CD, or PBS. As described above, the pathologic changes and erosion development were observed via SLE at 13 hours PI (FIG. 2B) whereas the number of surviving bacteria was determined at 14 hours PI.

The next assay addresses α-toxin heptamer (Staphylococcus aureus, UniProt P09616). Particulars: literature; cited from earlier work.
[3] abbreviates: 1% topical drops 7 to 13 hours PI (15 drops), 13 hours PI.
Where [4] appears, read: 1% topical drops 7 to 13 hours PI, 13 hours PI.
Setting [5] is: 1% topical drops 7 to 13 hours PI, 14 hours PI.

Entries after “also recorded” stand apart in the source; their conditions may differ.

T1 sequence (P09616 27-319 limits assumed): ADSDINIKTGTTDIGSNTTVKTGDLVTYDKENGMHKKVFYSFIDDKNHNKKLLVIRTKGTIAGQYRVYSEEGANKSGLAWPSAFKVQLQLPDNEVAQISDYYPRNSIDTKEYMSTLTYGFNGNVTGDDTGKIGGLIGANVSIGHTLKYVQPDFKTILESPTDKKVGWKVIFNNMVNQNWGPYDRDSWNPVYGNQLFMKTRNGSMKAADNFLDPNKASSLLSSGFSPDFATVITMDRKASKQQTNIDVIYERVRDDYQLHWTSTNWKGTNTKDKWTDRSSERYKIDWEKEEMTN
Chain of α-toxin heptamer (P09616 27-319 limits assumed): as above

In the case of `C[C@]12CCC(=O)C=C1CC[C@@H]1[C@@H]2[C@@H](O)C[C@@]2(C)[C@H]1CC[C@]2(O)C(=O)CO` [hydrocortisone], on α-toxin [1], the “inhibition of α-toxin activity” value is “weakly inhibited”.
Regarding methyl-β-cyclodextrin [CD], on α-toxin [2], the “reduction in α-toxin hemolytic titer” value was “twofold; also recorded: two-fold”. Besides, the “average SLE score” value in the assay with S. aureus strain 8325-4 (setting [3]) worked out at 9.23±0.39; in the assay on S. aureus strain 60171 (setting [3]) it was 9.02±0.90. In the assay on S. aureus strain 8325-4 (setting [4]), the corneal erosion diameter is 4.55±0.28 mm. Moreover, in the assay on S. aureus strain 8325-4 (setting [5]), the “number of surviving S. aureus” value is 9.36×10^6±4.22×10^5 bacteria per cornea. Also, the “diameter of corneal epithelial erosions” value in the assay with S. aureus strain 60171 (setting [4]) is listed as 4.83±0.31 mm. The “bacteria in the corneas” value in the assay on S. aureus strain 60171 (setting [5]) is 2.42×10^7±8.96×10^6 bacteria. Moreover, the “binding to the pore of α-toxin heptamer” value on α-toxin heptamer is listed as “bind weakly”.

The values above are taken from patent US8916543B1 (priority 2009, dated 2014).
